Data as given in patent publication US20050143463A1, “Method of inhibiting angiogenesis” (THE QUEEN ELIZABETH HOSPITAL RESEARCH FOUNDATION INC., priority 2002, published 2005).

Experiments:
[1] = test system: Human umbilical vein endothelial cells (HUVEC); assay: HUVEC proliferation assay (tritiated thymidine uptake); assay type: cell-based; details: for HUVEC proliferation (in words) / inhibition at 400 µM: 400 μM concentration; for HUVEC proliferation (in words): tritiated thymidine uptake; for inhibition at 400 µM: percentage of control cells with no added agent (Table 3), read-out: Percentage inhibition of HUVEC proliferation; for inhibition of HUVEC proliferation in vitro, dose dependent (in words): dose dependent manner
Description: Human umbilical vein endothelial cells (HUVEC) were seeded in 96-well flat bottomed tissue culture plates at a density of 2.5-5×10^4 cells/well and treated with various dilutions of agents. Cells were cultured in RPMI medium containing 20% FCS, Penicillin/Streptomycin in a 5% CO2 atmosphere at 37° C. After 24 to 48 hours of incubation, cells were pulsed with 1 μCi of tritiated thymidine for 6 hours. The pulsed cells were trypsinised to detach from the wells and then harvested in a TOMTEC Cell Harvester onto glass fibre filters, which were dried and immersed in scintillation fluid and counted in a Wallac Microbeta scintillation counter. The results were reported as mean cpm±SD.

[2] = test system: chicken chorioallantoic membrane (CAM); assay: Chicken chorioallantoic membrane (CAM) assay for angiogenesis; assay type: in vivo; details: for Vein length (%) / Artery length (%) / CAM Increase (%) / Total vessel length (%) / Vein Diameter (%): % of control, Mean ± SEM; for cytotoxicity to the embryo: chicken embryo, CAM assay; for inhibition of angiogenesis in the CAM assay, dose dependent (in words): dose dependent manner; for effect of the lowest dose on vein length, artery length, total vessel length and vein diameter (in words): lowest dose (25 nmol)
Description: Fertilised chicken eggs (HiChick Breeding Co, Kapunda, South Australia) were incubated for three days at 38° C. On Day 3 the embryos were cracked out of the egg and into a cup made of plastic piping, with plastic film stretched over the top to form a hammock for the egg to be suspended in. Two ml of DMEM containing penicillin and streptomycin was added to each cup prior to the egg being added. A petri dish on the top maintained sterility. Incubation continued in a humidified 37° C. incubator.
On Day 4 the chorioallantoic membrane (CAM) begins to grow, and pictures were taken of each embryo at ×5 to measure the CAM area using image analysis software (Video Pro 32, Leading Edge Pty Ltd, South Australia).
Embryos were then grouped according to their CAM area, with a control embryo in each for comparison. Grouping is critical as in these early developmental stages changes in the CAM growth are dramatic. Relatively small differences in size on Day 4 translate to large differences in the CAM on Day 5. Treatment was applied in methylcellulose discs, which were dried under vacuum overnight. The methylcellulose discs were applied to the top of the CAM, and at the beginning of treatment were at least three to four-fold bigger than the CAM area, meaning treatment covered the entire CAM surface.
On Day 5 skim milk with contrast medium was injected into the CAM. Pictures were then taken at various levels of magnification up to ×63. Quantitative measurements were made from ×5 pictures. CAM area, and vein and artery lengths were measured using image analysis (Video Pro 32, Leading Edge Pty Ltd, South Australia). Relative vessel lengths were then calculated as the total length/CAM area. Statistical analysis was made using SigmaStat and OneWay ANOVA with p<0.05 as the level of significance.

[3] = 25 nmol on methylcellulose disc
[4] = 50 nmol on methylcellulose disc
[5] = 100 nmol on methylcellulose disc

CC(C)CCCCCCCCCC(=O)O [11-methyl dodecanoic acid] was tested, and the “HUVEC proliferation (in words)” value [1] was “inhibited”, the inhibition at 400 µM ([1]; Homo sapiens, HUVEC) was 83% and the “inhibition of HUVEC proliferation in vitro, dose dependent (in words)” value (“inhibition of HUVEC proliferation … (in words)” below) [1] was “inhibit the proliferation”.

In the case of CCC(C)CCCCCCCCCCCC(=O)O (stereo not shown) [13-methyl pentadecanoic acid], the “HUVEC proliferation (in words)” value [1] is reported as “inhibited”, the inhibition at 400 µM ([1]; Homo sapiens, HUVEC) is reported as 21% and the “inhibition of HUVEC proliferation … (in words)” value [1] is reported as “inhibit the proliferation”.

For CCCCCCCCC(C)CCCCCCCCC(=O)O (stereo not shown) [10-MODA, 10-methyloctadecanoic Acid], the “Vein length (%)” value [2, 3] was 88.4 ± 8.8%, the “Artery length (%)” value ([2]; 25 nmol) was 85.7 ± 6.2% and the “CAM Increase (%)” value ([2]; 25 nmol) was 101.9 ± 11.2%. The “Total vessel length (%)” value ([2]; 25 nmol) was 85.7 ± 5.4%, the “Vein Diameter (%)” value ([2]; 25 nmol) was 82.9 ± 3.0% and the “Vein length (%)” value [2, 4] was 85.8 ± 14.1%. For the same compound, the “Artery length (%)” value ([2]; 50 nmol) was 94.3 ± 6.3%, the “CAM Increase (%)” value ([2]; 50 nmol) was 120.2 ± 25.5% and the “Total vessel length (%)” value ([2]; 50 nmol) was 88.9 ± 7.0%. For the same compound, the “Vein Diameter (%)” value ([2]; 50 nmol) was 90.2 ± 9.8%, the “number of branching capillaries sprouting from the main vessels” value (“number” below) ([2]; 100 nmol) was “reduction” and the vessel area ([2]; 100 nmol) was “diminished”. The “Vein length (%)” value [2, 5] was 70.9 ± 22.5%, the “CAM Increase (%)” value ([2]; 100 nmol) was 68.2 ± 8.6% and the “Vein Diameter (%)” value ([2]; 100 nmol) was 76.1 ± 16.2%. The “cytotoxicity to the embryo” value [2] was “not cytotoxic”, the “inhibition of angiogenesis in the CAM assay, dose dependent (in words)” value (from here on “inhibition of angiogenesis”) [2] was “inhibit angiogenesis” and the “effect of the lowest dose on vein length, artery length, total vessel length and vein diameter (in words)” value (“effect of the lowest dose on vein length” for short) [2] was “inhibited”.

For CC(C)CCCCCCCCCCCCCCCC(=O)O [17-MODA, 17-methyloctadecanoic Acid], the “Vein length (%)” value [2, 3] was 81.3 ± 16.8%, the “Artery length (%)” value ([2]; 25 nmol) was 82.6 ± 18.0% and the “Total vessel length (%)” value ([2]; 25 nmol) was 81.9 ± 16.9%. For the same compound, the “Vein Diameter (%)” value ([2]; 25 nmol) was 71.6 ± 13.4%, the “Vein length (%)” value [2, 4] was 112.8 ± 9.4% and the “Artery length (%)” value ([2]; 50 nmol) was 97.0 ± 11.7%. The “Total vessel length (%)” value ([2]; 50 nmol) was 104.2 ± 10.4%, the “Vein Diameter (%)” value ([2]; 50 nmol) was 81.3 ± 8.4% and the “number” value ([2]; 100 nmol) was “reduction”. For the same compound, the vessel area ([2]; 100 nmol) was “diminished”, the “Vein length (%)” value [2, 5] was 94.3 ± 18.9% and the “Artery length (%)” value ([2]; 100 nmol) was 97.2 ± 17.4%. For the same compound, the “Total vessel length (%)” value ([2]; 100 nmol) was 95.9 ± 18.1%, the “Vein Diameter (%)” value ([2]; 100 nmol) was 70.0 ± 15.0% and the “cytotoxicity to the embryo” value [2] was “not cytotoxic”. The “inhibition of angiogenesis” value [2] was “inhibit angiogenesis” and the “effect of the lowest dose on vein length” value [2] was “inhibited”.

In the case of CC(C)CCCCCCCCC(=O)O [10-methyl undecanoic acid], the “HUVEC proliferation (in words)” value [1] is reported as “inhibited”, the inhibition at 400 µM ([1]; Homo sapiens, HUVEC) is reported as 84% and the “inhibition of HUVEC proliferation … (in words)” value [1] is reported as “inhibit the proliferation”.

With CC(C)CCCCCCCCCCCC(=O)O [13-MTA, 13-methyltetradecanoic Acid] the “HUVEC proliferation (in words)” value [1] was “inhibited”, the inhibition at 400 µM ([1]; Homo sapiens, HUVEC) was 19% and the “inhibition of HUVEC proliferation … (in words)” value [1] was “inhibit the proliferation”. The “number” value ([2]; 100 nmol) was “reduction”, the vessel area ([2]; 100 nmol) was “diminished” and the “cytotoxicity to the embryo” value [2] was “not cytotoxic”. For the same compound, the “inhibition of angiogenesis” value [2] was “inhibit angiogenesis” and the “effect of the lowest dose on vein length” value [2] was “inhibited”.

For CC(C)CCCCCCCCCCCCCC(=O)O [15-methyl hexadecanoic acid], the “HUVEC proliferation (in words)” value [1] was “inhibited”, the inhibition at 400 µM ([1]; Homo sapiens, HUVEC) was 63% and the “inhibition of HUVEC proliferation … (in words)” value [1] was “inhibit the proliferation”.

For CC(C)CCCCCCCCCCC(=O)O [12-methyl tridecanoic acid], the “HUVEC proliferation (in words)” value [1] was “inhibited”, the inhibition at 400 µM ([1]; Homo sapiens, HUVEC) was 35% and the “inhibition of HUVEC proliferation … (in words)” value [1] was “inhibit the proliferation”.

In the case of CCC(C)CCCCCCCCCCCCCC(=O)O (stereo not shown) [15-methyl heptadecanoic acid], the “HUVEC proliferation (in words)” value [1] is reported as “inhibited”, the inhibition at 400 µM ([1]; Homo sapiens, HUVEC) is reported as 49% and the “inhibition of HUVEC proliferation … (in words)” value [1] is reported as “inhibit the proliferation”.

CC(C)CCCCCCCCCCCCC(=O)O [14-MPDA, 14-methylpentadecanoic Acid] was tested, and the “HUVEC proliferation (in words)” value [1] was “inhibited”, the inhibition at 400 µM ([1]; Homo sapiens, HUVEC) was 7% and the “inhibition of HUVEC proliferation … (in words)” value [1] was “inhibit the proliferation”. For the same compound, the “Vein length (%)” value [2, 3] was 89.6 ± 10.1%, the “Artery length (%)” value ([2]; 25 nmol) was 81.3 ± 11.4% and the “Total vessel length (%)” value ([2]; 25 nmol) was 84.7 ± 8.7%. The “Vein Diameter (%)” value ([2]; 25 nmol) was 90.8 ± 9.2%, the “Vein length (%)” value [2, 4] was 80.9 ± 14.3% and the “Artery length (%)” value ([2]; 50 nmol) was 81.4 ± 11.7%. For the same compound, the “Total vessel length (%)” value ([2]; 50 nmol) was 80.9 ± 12.3%, the “Vein Diameter (%)” value ([2]; 50 nmol) was 81.8 ± 14.1% and the “number” value ([2]; 100 nmol) was “reduction”. For the same compound, the vessel area ([2]; 100 nmol) was “diminished”, the “Vein length (%)” value [2, 5] was 63.3 ± 5.1^1% and the “Artery length (%)” value ([2]; 100 nmol) was 83.5 ± 9.3%. The “Total vessel length (%)” value ([2]; 100 nmol) was 74.0 ± 6.6%, the “Vein Diameter (%)” value ([2]; 100 nmol) was 76.3 ± 10.2% and the “cytotoxicity to the embryo” value [2] was “not cytotoxic”. For the same compound, the “inhibition of angiogenesis” value [2] was “inhibit angiogenesis” and the “effect of the lowest dose on vein length” value [2] was “inhibited”.

CC(C)CCCCCCCCCCCCCCC(=O)O [16-methyl heptadecanoic acid] was tested, and the “HUVEC proliferation (in words)” value [1] was “inhibited”, the inhibition at 400 µM ([1]; Homo sapiens, HUVEC) was 19% and the “inhibition of HUVEC proliferation … (in words)” value [1] was “inhibit the proliferation”.

In the case of CCC(C)CCCCCCCCCCCCC(=O)O (stereo not shown) [14-methyl hexadecanoic acid], the “HUVEC proliferation (in words)” value [1] is reported as “inhibited”, the inhibition at 400 µM ([1]; Homo sapiens, HUVEC) is reported as 41% and the “inhibition of HUVEC proliferation … (in words)” value [1] is reported as “inhibit the proliferation”.

For CCC(C)CCCCCCCCCC(=O)O (stereo not shown) [11-methyl tridecanoic acid], the “HUVEC proliferation (in words)” value [1] was “inhibited”, the inhibition at 400 µM ([1]; Homo sapiens, HUVEC) was 42% and the “inhibition of HUVEC proliferation … (in words)” value [1] was “inhibit the proliferation”.

For CO[C@H]1C[C@@H]2CC[C@@H](C)[C@@](O)(O2)C(=O)C(=O)N2CCCC[C@H]2C(=O)O[C@H]([C@H](C)C[C@@H]2CC[C@@H](O)[C@H](OC)C2)CC(=O)[C@H](C)/C=C(\C)[C@@H](O)[C@@H](OC)C(=O)[C@H](C)C[C@H](C)/C=C/C=C/C=C/1C [rapamycin, reference compound], the “% Inhibition of HUVEC proliferation” value ([1]; 0.1 nM rapamycin, 24 hours (Table 2)) was 72.8%, the inhibition at 0.0001 µM ([1]; Homo sapiens, HUVEC, 24 h, 0.1 nM rapamycin, 24 hours (Table 2)) was 73% and the inhibition at 0.001 µM ([1]; Homo sapiens, HUVEC, 24 h, 1 nM rapamycin, 24 hours (Table 2)) was roughly 80%.

With 16-methyltetradecanoic acid the “inhibition of angiogenesis” value [2] was “inhibit angiogenesis”.
